Source: patent publication US20100130597A1, “DNA-PKCS MODULATES ENERGY REGULATION AND BRAIN FUNCTION” (The United State of America, as represented by the …, priority 2007, published 2010)

Legend:
[1] = Glucose levels, insulin tolerance and glucose tolerance tests in treated mice; assay type: in vivo; conditions: for fed glucose levels in the serum: 8 mg/kg twice daily oral gavage three months
Description: (§1) The therapeutic potential of DNA-PKcs inhibitors to treat insulin resistance and diabetes was tested in vivo using high-fat induced type 2 diabetes and obesity models. We examined the effects of DNA-PKcs inhibition by feeding C57BL6/J mice with Compound 36 (Cpd36) or vehicle. Mice were treated with Cpd36 (8 mg/kg body weight) twice daily by oral gavage for three months in all efficacy studies shown in FIGS. 40-47.

C2C12 cells [2] = assay: Intercellular NAD:NADH ratio in C2C12 cells; assay type: cell-based; conditions: FIG. 54, Resveratrol 50 μM data not shown
Description: To test whether DNA-PKcs inhibitor affects Sirt1 activity, the intercellular NAD:NADH ratio was measured in C2C12 cells treated with Cpd36.

[3] = Blood lactate during standardized treadmill test; assay type: in vivo, mice; conditions: capillary blood during standardized treadmill test, FIG. 46A
Description: The use of Cpd36 may also facilitate more rapid recovery following intense physical exertion. Blood lactate concentrations were measured in capillary blood during a standardized treadmill test.

C2C12 cells [4] = assay: Cellular lactate and pyruvate in C2C12 cells; assay type: cell-based; conditions: 0.8 μM
[5] = Treadmill running endurance; assay type: in vivo, mice
Description: Previous studies have shown that increased expression of PPARδ or PGC-1α in skeletal muscle decreases exercise-induced fatigue. Therefore, tests were performed to ascertain what was the physical endurance of 4, 7 and 14 month-old SCID and WT mice using treadmill running. Prior to the exercise test, the mice were accustomed to and trained by running on an Exer-3/6 mouse treadmill (Columbus Instruments) at 7 m/min for 5 minutes for 3 days. For the endurance test, the treadmill speed was increased to 10 m/min and mice were allowed to run until exhaustion.
The therapeutic potential of DNA-PKcs inhibitors to reverse physical decline with aging was tested. In particular, the physical endurance of obese and middle-aged mice treated with Cpd36 was examined by treadmill running. Obese mice fed a high-fat diet that were treated with Cpd36 were able to run 40-50% farther over a given period of time than the control mice fed the same high fat diet (FIG. 45), as measured by totaling the distance run on a treadmill. Middle-aged mice (13 months) fed a breeder diet who were similarly treated with Cpd36 were also able to run 40-50% farther than middle aged mice that received no such treatment (data not shown).

Elevated plus maze test = assay type: in vivo, mice
Description: To evaluate whether SCID mice may also have altered anxiety, fear and depression-like traits, an elevated plus maze test was performed, which is a commonly used test to quantify the level of anxiety- and depression-like traits in rodents (Pellow et al. J. Neurosci. Methods 14: 149-67 (1985)). The elevated plus maze has narrow runways that are located 16 inches above the surface that are either closed or open. The animal is placed in the center of an elevated 4-arm maze in which 2 arms are open and 2 are enclosed. Mice generally avoid the open arms because of their fear of open space and height. The elevated plus-maze is used to determine the rodent's response to a potentially dangerous environment and anxiety-related behavior is measured by the degree to which the rodent avoids the unenclosed arms of the maze. Increase in the number of times the animal enters the open arm and the amount of time spent in the open arms reflect decreased anxiety and depression.
(§2) Elevated plus maze tests, light/dark chamber tests, forced swim tests (FST) and hot plate tests were performed as described earlier.

Forced swim test (FST) = assay type: in vivo, mice
Description: as §2

[6] = Body weight, fat and lean mass, food intake and activity of treated mice; assay type: in vivo
Description: To determine the source of the body weight difference observed as described in Example 9, the fat and lean mass of the animals used in these experiments were measured using NMR spectroscopy (Bruker BioSpin Corporation, Houston, Tex.). Body fat indices were calculated by dividing fat or lean mass by body weight.
as §1
Body weight was monitored in mice receiving Cpd36 (8 mg/kg body weight) twice daily by oral gavage for three months.

[7] = Hot plate test, latency for pain reaction; assay type: in vivo, mice; conditions: hot plate, FIG. 48E
Description: Epidemiological studies indicate that people with mood disorders are twice as likely to have chronic pain compared to people without mood disorders (Ohayon et al., Arch. Gen. Psychiatry 60: 39-47 (2003)). Although it is possible that pain contributes to the depressed mood, it is also possible that perception of pain is increased in people with mood disorders. To determine whether SCID mice have altered pain tolerance, the latency for pain reaction to a hot plate was measured. […] (FIG. 30) and at 55° C.
Because tolerance to pain (Example 26) is also linked to the serotonergic pathways, measurements of the latency to pain reaction on hot plate after saline, serotonin reuptake inhibitor fluoxetine (Prozac) or serotonin antagonist GR38032F (Zofran) injection were made.
as §2

Light/dark chamber test = assay type: in vivo; conditions: treated vs untreated mice
Description: WT and SCID mice were tested in another anxiety test using the light-dark box (Bourin and Hascoet, Eur J Pharmacol 463:55 (2003)). The light-dark box test is based on the innate aversion of rodents to brightly illuminated areas and on the spontaneous exploratory behavior of rodents in response to a mildly stressful situation, that is, a novel environment and light (Crawley and Goodwin Pharmacol Biochem Behav 13:167, 1980). In the light-dark test, increased activity in the light compartment indicates decreased anxiety.
as §2

[8] = Blood-brain barrier penetration inferred from behavioural effects; assay type: in vivo, mice; conditions: inferred from decreased anxiety/depression at a low-dose
Description: For any central nervous system drugs, a major rate-limiting step for uptake into the brain is BBB permeability. […] The BBB is an essential physiological barrier for the maintenance and regulation of brain function. It is comprised of brain microvascular endothelial cells that are connected by tight junctions. This transvascular route to the brain is impenetrable to the majority of drugs. Enhanced BBB permeability is obtained, for example, by increasing the lipid solubility of the water-soluble molecules.

Compound: O=c1cc(N2CCOCC2)oc2c(-c3cccc4c5c(sc34)CCCC5)cccc12 [Compound 36, 8-(6′,7′,8′,9′-Tetrahydrodibenzothiophen-4′-yl)-2-N-morpholinochromen-4-one]
- fed glucose levels in the serum ([1]; HFD (obese) mice, FIG. 40A): lowered fed glucose levels
- fed glucose levels in the serum ([1]; middle-aged mice (breeder diet 13 months), FIG. 40B): lowered fed glucose levels
- glucose tolerance ([1]; middle-aged mice, FIG. 41): increased
- insulin sensitivity ([1]; middle-aged mice, FIG. 41): increased
- glucose tolerance ([1]; obese mice, FIG. 42): increased
- insulin sensitivity ([1]; obese mice, FIG. 42): increased
- intercellular NAD:NADH ratio (C2C12 cells [2]): increased the NAD:NADH ratio
- serum lactate levels [3]: Significantly lower serum lactate levels
- lactate levels in cell extracts (C2C12 cells [4]; 16 hrs, FIG. 46B): Reduced lactate levels
- Cellular pyruvate level (C2C12 cells [4]; data not shown): increased
- distance run on treadmill, farther than untreated ([5]; middle-aged mice (13 months) on breeder diet, data not shown): 40-50%
- distance run on treadmill, farther than control ([5]; obese mice on high-fat diet, FIG. 45): 40-50%
- levels of anxiety/depression (Elevated plus maze test; elevated plus maze and light/dark chamber tests, FIGS. 47 and 48): dramatically lower levels of anxiety/depression
- time in closed arm of the elevated plus maze (Elevated plus maze test; treated vs untreated mice): less time in a closed arm
- mobility vs untreated mice (Forced swim test (FST); FIG. 47D): more mobile
- immobility in the forced swim test (Forced swim test (FST); data not shown): decreased immobility
- fat mass (NMR) ([6]; HFD mice vs control, FIG. 44): reduction in fat mass
- lean mass (NMR) ([6]; HFD mice vs control, FIG. 44): slight increase in lean mass
- body weight ([6]; HFD mice, 8 mg/kg twice daily oral gavage three months, FIG. 43): did not increase in body weight substantially
- food intake ([6]; HFD mice, 8 mg/kg twice daily oral gavage three months, data not shown): did increase
- activity of mice vs control HFD mice ([6]; HFD mice, data not shown): no significant difference
- mesenteric fat ([6]; mice on HFD 3 months, 8 mg/kg twice daily oral gavage 3 months, vs vehicle): reduced mesenteric fat significantly
- pain sensation [7]: decreased pain sensation
- time in the light compartment (Light/dark chamber test): more time in the light compartment
- time to enter the light chamber (Light/dark chamber test): quicker to enter the light chamber
- blood-brain barrier (BBB) penetration [8]: can penetrate the blood-brain barrier (BBB) efficiently
